Results on two sequences are retold here after paper PMC10079954, “Rational design of phase separating peptides based on phase separating protein sequence of p53” (Scientific Reports, 2023).

Data set [1] concerns the target C-terminal peptide of p53. Briefly: Affinity of DPp53C1 to the C-terminal peptide of p53. Type of data set: binding.
The nature of data set [2]: Single-molecule fluorescence tracking (HILO) of labeled molecules in their droplets. Type of data set: physicochemical. The note with it: Alexa488-labeled peptide 10–100 pM in 0.9 mM non-labeled peptide droplets; 25 mM HEPES, 0.5 mM EDTA, 45 mM NaCl, 150 mg/mL dextran, pH 7.0; linear fit of MSD (4D slope). As for the experimental part: We quantitatively characterized the liquid droplet properties of the four designed peptides and compared them with those of p53. We measured the fusion of the designed peptide droplets in the solution used for p53 droplets (Supplementary Fig. S4). In the presence of 45 mM NaCl and 150 mg/mL dextran, the fusion of droplets for the four designed peptides was observed within 0.2 s, which was much faster than that for p53 (3.7 min)[8]. This gap in the fusion period implies different intrinsic dynamic properties. We measured the movement of Alexa488-labeled peptides within non-labeled peptide droplets using single-molecule fluorescence microscopy with a highly inclined and laminated optical sheet (HILO) illumination[37],[41] (Fig. 3A). […]
Single-molecule measurements were performed following the method described in our previous studies[37],[41]. An inverted fluorescence microscope (IX-73; Olympus) with a total internal reflection fluorescence unit (IX3RFAEVAW; Olympus) was used[52],[53]. […] The fluorescence collected via the objective lens was detected using an EM-CCD camera (iXon Ultra 888, Andor). […] Images were recorded at intervals of 15–154 ms after reducing the number of observable molecules in the droplets by photobleaching within one minute. […]

Data set [3] has as its system p53 monomer (L344P) mutant. Briefly: Recruitment (enrichment index) of p53 monomer into designed peptide droplets. As to conditions: 0.9–1.8 mM designed peptide, 0.1 µM Alexa488-labeled p53, 25 mM HEPES, 0.5 mM EDTA, 1 mM DTT, pH 7.0, 22 °C; ± standard error; SEM. The arrangement: species or system human. The source says:
(§1) We prepared p53 tetramer, dimer, and monomer mutants, as described previously[8],[37],[50]. For the p53 tetramer, a thermostable and cysteine-modified human p53 mutant (C124A, C135V, C141V, W146Y, C182S, V203A, R209P, C229Y, H233Y, Y234F, N235K, Y236F, T253V, N268D, C275A, C277A, and K292C) was used[50]. The dimer and monomer mutants of p53 corresponded to L344A and L344P of the tetramer sequence, respectively[8],[37]. These p53 mutants were expressed with a glutathione S-transferase (GST) tag in E. coli and purified after cleavage of the GST tag, as described previously[50],[51]. The oligomeric state of p53 mutants was confirmed using a gel filtration column (Superdex 200; GE Healthcare). p53 mutants were labeled with Atto488 (ATTO-TEC) or Alexa488 (Thermo Fisher) using maleimide chemistry and then purified using a heparin column (GE Healthcare). We prepared Alexa488-labeled FUS-MBP as described previously[37],[39].
(§2) Recruitment evaluations were performed following the method described in our previous studies[37],[41]. Solutions containing 0.9–1.8 mM designed peptides, 0.1 µM Alexa488-labeled p53 mutants or Alexa488, 25 mM HEPES, 0.5 mM EDTA, and 1 mM DTT at pH 7.0 were used. The solutions were then incubated at 22 °C for five minutes. The aforementioned microscope was used with HILO illumination. To prevent photo-bleaching of the fluorescent samples, we used a laser power of 0.15 mW. The images were acquired at 22 °C. Using the ImageJ software, we calculated the EI values of the individual droplets as follows:2 EI=Idroplet/Isolution, where Idroplet and Isolution represent the average fluorescence intensities of the individual droplets and solutions near the droplets with background substitution, respectively.

For data set [4], the system named is p53 tetramer. Briefly: Recruitment (enrichment index) of p53 tetramer into designed peptide droplets. Also noted: species or system human. The note with it: droplet interior regions, surface not included; no salt, pH 7.0.
From the text: as §1, §2

Data set [5] concerns maltose binding protein-fused FUS (FUS-MBP). Briefly: Recruitment (enrichment index) of FUS-MBP into designed peptide droplets. The note with it: 1 mM DPp53N-GSGS-D7, 100 nM Alexa488-labeled protein, 1 mM DTT, pH 7.0. As for the experimental part: as §2, with “Solutions containing 0.9–1.8 mM designed peptides, 0.1 µM Alexa488-labeled p53 mutants or Alexa488, 25 mM HEPES, 0.5 mM EDTA, and 1 mM DTT at pH 7.0 were used.” left out
Fig. S10 p53 monomer is localized inside droplets of DPp53N-GSGS-D7, whereas FUS-MBP is localized in its droplet surfaces. Fluorescence images of Alexa488-labeled p53 monomer mutant (L344P) and FUS-MBP in droplet solution of non-labeled DPp53N-GSGS-D7. The solution containing 103 mM HEPES and 1 mM DTT, 100 nM Alexa488 labeled proteins, and 1 mM DPp53N-GSGS-D7 at pH 7.0 was used.
Fig. S13 Design and experimental verification of artificial PS peptides from PS protein FUS. […] (B) DIC and fluorescence images of the solution containing 4 mM FUS designed peptide and 120 mM HEPES at pH 7.0. […] (C) Fluorescence images of Alexa488-labeled FUS-MBP in non-labeled FUS-designed-peptide droplet solution. […]

The Kd is the free concentration of one partner at which half of the binding sites on the other are occupied at equilibrium, for simple one-to-one binding.

DDDASQEDDD [DPp53C1] yielded a Kd in data set [1] of 10 µM.
Take RRRVVQRRRRGSGSDDDDDDD [DPp53N-GSGS-D7]: the “Average diffusion coefficient (D) in own droplets” value in data set [2] is recorded as 0.26 ± 0.01 μm^2/s. Moreover, in data set [3], the “Enrichment index (EI) of p53 monomer (L344P) mutant in peptide droplets” value was 22.3 ± 0.7. Also, the “Decrease of average EI of p53 tetramer relative to p53 monomer” value in data set [4] was found to be 10.5 fold. Besides, the “Average EI of FUS-MBP, fold smaller than that of p53 monomer” value in data set [5] is listed as 2.2 fold.
